Experimental data as given in US5340587A, “Liposome/bronchodilator method & System” (priority 1989, dated 1994).
Structures can show the parent of a compound that is named as a salt.

Key:
[1] = Table 1; cited from earlier work
[2] = in vivo
Procedure: This liposome-protective effect is illustrated in FIGS. 1A and 1B, which graph percent increases in heart rate, above a pre-drug level, in animals receiving a β2 -agonist in free (open squares), or liposomal form. The two liposomal formulations are characterized by relatively short drug-release half life (open circles, FIG. 1A), or a relatively long drug-release half life (closed circles, FIG. 1B). Heart rate was measured at 15, 45, 75, and 105 minutes after drug administration, and immediately before the animal received a bronchoconstricting dose of histamine by inhalation. […] With liposome-encapsulated drug, however, the increase in heart rate was substantially lower and more constant over the test period.

[3] = system: acetylcholine-induced bronchoconstriction; test: protection against acetylcholine-induced bronchoconstriction (FIG. 4); type: in vivo, mongrel dogs; details: inhalation, high dose MPS, about four hours (FIG. 4)
Excerpt: This parameter reflects the increase in airway resistance (bronchoconstriction) immediately after administration of acetylcholine to induce bronchoconstriction. That is, the percent protection indicates the percent increase in airway resistance relative to a pre-drug level, following acetylcholine. […] It is noted that this study involved relatively high dose levels of MPS (which were needed to protect against the severe bronchoconstriction induced by the acetylcholine aerosols).
This example examines the therapeutic effect of free and liposome-encapsulated metaproteranol sulfate (elevated dosage levels) on bronchoconstriction induced by aerosols of acetylcholine (ACH).
Two mongrel dogs, a 20 kg male and a 30 kg female, were anesthetized with an initial i.v. bolus injection of sodium thiopental (10 mg/kg body weight) and sodium pentabarbital (20 mg/kg body weight) and subsequent boluses of sodium thiopental every thirty minutes, or as needed, to maintain the dog in an anesthetized state over a four hour test period. […] Air flow was monitored by a pneumotachograph connected to the endotracheal tube and the respirator and connected to a differential pressure transducer. Transpulmonary pressure was monitored by a differential pressure transducer, one port connected to a side arm of the tracheal tube and the other end connected to the esophageal balloon catheter. […]

[4] = in vivo; cited from earlier work
[5] = blood plasma MPS levels after inhalation (FIG. 2); type: in vivo; details: inhaled or intranasal
[6] = system: histamine-induced bronchoconstriction; test: determination of therapeutic dose of free drug against histamine-induced bronchoconstriction; type: in vivo, guinea pigs; details: free form, inhalation
Procedure: The therapeutic doses of terbutaline sulfate, and salbutamol sulfate which were used in the present study were determined as follows. […] These drug doses, adjusted for the body weight of the test animal, were administered by inhalation in free form, and their effects on the histamine-induced bronchoconstriction were determined as above. MPS was also tested in the initial drug-dose study. […] The therapeutic doses per animal determined from the study were: 39 μg MPS (2× recommended dose); 15 μg terbutaline (2× recommended dose); and 1.5 μg salbutamol (1× recommended dose). The therapeutic dose of MPS is approximately 60 times less than the dose used in the experiments reported above, and in Example VI.

bronchoconstriction = details: free vs liposomal-entrapped MPS; cited from earlier work
[7] = system: histamine-induced bronchoconstriction; test: histamine-induced bronchoconstriction: airway resistance and lung compliance (FIGS. 5, 6); type: in vivo, guinea pigs; details: terbutaline, relative to baseline
Procedure: The study described in Example VII illustrates the increased protection, at extended time periods, achievable with liposomal drug administration. Briefly summarizing the Example VII study, terbutaline sulfate or salbutamol sulfate, in either free or liposomal form, was administered by inhalation. At several times after drug administration, the test animal was challenged with aerosolized histamine, to induce bronchoconstriction. At the beginning of each test, prior to administration of the β2 -agonist, and immediately after each histamine dose, airway resistance and lung compliance in the animal were measured. Airway resistance, which is measured at points of equal lung volume during the breathing cycle, provides a measure of the resistance to gas flow through the large air passages of the lung. Lung compliance, which is measured at zero flow points in the breathing cycle, reflects the pressure changes required to effect the lung volume change over the breathing cycle. The resistance and compliance values determined at the beginning of the test serve as baseline values for determining the percentage changes in resistance and compliance, in response to histamine-induced bronchoconstriction.
Each time point was calculated as the difference in airway resistance shortly after histamine administration and at the beginning of the test (baseline value) divided by the baseline value. […]

Row | SMILES | Tc (transition temperature) [1] [C.°] | protection against bronchoconstriction at the recommended dose [6] | therapeutic dose per animal [6] [µg] | further results
1 | CCCCCCCCCCCCCC(=O)OC[C@H](COP(=O)([O-])OCC[N+](C)(C)C)OC(=O)CCCCCCCCCCCCC [DMPC, dimyristoyl phosphatidyl choline] | 23 | – | – | –
2 | CCCCCCCC/C=C\CCCCCCCC(=O)OCC(COP(=O)([O-])OCC[N+](C)(C)C)OC(=O)CCCCCCC/C=C\CCCCCCCC (stereo not drawn) [DOPC, dioleoyl phosphatidyl choline] | -22 | – | – | –
3 | CCCCCCCCCCCCCCCC(=O)OC[C@H](COP(=O)([O-])OCC[N+](C)(C)C)OC(=O)CCCCCCCCCCCCCCC [DPPC, dipalmitoyl phosphatidyl choline] | 41 | – | – | –
4 | CCCCCCCCCCCCCCCCCC(=O)OCC(COP(=O)([O-])OCC[N+](C)(C)C)OC(=O)CCCCCCCCCCCCCCCCC (stereo not drawn) [DSPC, distearoyl phosphatidyl choline] | 55 | – | – | –
5 | CC(C)NCC(O)c1cc(O)cc(O)c1 (stereo not drawn) [MPS, metaproteranol sulfate] | – | necessary to double the recommended dose in order to achieve effective protection | 39 | increase in heart rate [2]: relatively high initial heart rate increase, with a slow decline over the test period; percent protection from ACH-induced bronchoconstriction [3]: substantially the same degree of protection against ACH-induced bronchoconstriction; plasma level course [4]: rapid drop in plasma levels; Cmax ([5]; free drug within 15 minutes, read-out: blood plasma MPS level, high): ~80 ng/mL; concentration at 2 h ([5]; over a two-hour period, read-out: blood plasma MPS level at end of test period): ~20 ng/mL; percent protection against bronchoconstriction (bronchoconstriction): about the same for both free drug and liposomal-entrapped drug
6 | CC(C)(C)NCC(O)c1ccc(O)c(CO)c1 (stereo not drawn) [salbutamol sulfate] | – | good protection against bronchoconstriction | 1.5 | –
7 | CC(C)(C)NCC(O)c1cc(O)cc(O)c1 (stereo not drawn) [terbutaline sulfate] | – | necessary to double the recommended dose in order to achieve effective protection | 15 | increase in airway resistance, end of test period ([7]; 115 minutes (FIG. 5A)): over 160%; increase in airway resistance, initial ([7]; first histamine challenge (FIG. 5A)): 60%
